According to ChEMBL document CHEMBL1201862, “PubChem BioAssay data set” (2004):
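48-hour exposure; five concentrations; linearly interpolated endpoints. The concentration for 50% growth inhibition is given as GI50.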 Activity calls are given as the source filed them. Cut-off read from the data, not from the text of the source: active = GI50 up to about 1.1 µM and inactive = higher.

What was measured:
Assay in all cases: NCI anticancer screen, dose series, 48 h
[1] = system: HL-60
[2] = system: NCI-H460
[3] = system: SNB-19
[4] = system: HOP-62
[5] = system: OVCAR-4
[6] = system: LOX IMVI
[7] = system: KM12
[8] = system: COLO 205
[9] = system: NCI-H522
[10] = system: OVCAR-8
[11] = system: SN12C
[12] = system: MDA-N
[13] = system: DU-145
[14] = system: CAKI-1
[15] = system: PC-3
[16] = system: Hs-578T
[17] = system: M14
[18] = system: MDA-MB-231
[19] = system: BT-549

SMILES: O=c1c2ccccc2[nH]c(=S)n1-c1ccc(Br)cc1
- GI50 [1]: > 100 µM (inactive)
- GI50 [2]: 42.9 µM (inactive)
- GI50 [3]: > 100 µM (inactive)
- GI50 [4]: > 100 µM (inactive)
- GI50 [5]: 44.8 µM (inactive)
- GI50 [6]: 48.5 µM (inactive)
- GI50 [7]: > 100 µM (inactive)
- GI50 [8]: > 100 µM (inactive)
- GI50 [9]: 43.1 µM (inactive)
- GI50 [10]: 95.5 µM (inactive)
- GI50 [11]: > 100 µM (inactive)

SMILES: CC1(C)CC(=O)c2c(nc3c(ccc4ccccc43)c2-c2ccc(NC(=O)CCCC(=O)Nc3ccc(-c4c5c(nc6c4ccc4ccccc46)CC(C)(C)CC5=O)cc3)cc2)C1
- GI50 [12]: > 100 µM (inactive)
- GI50 [13]: > 100 µM (inactive)
- GI50 [14]: > 100 µM (inactive)
- GI50 [15]: > 100 µM (inactive)
- GI50 [1]: > 100 µM (inactive)
- GI50 [2]: > 100 µM (inactive)
- GI50 [3]: > 100 µM (inactive)
- GI50 [16]: > 100 µM (inactive)
- GI50 [4]: > 100 µM (inactive)
- GI50 [6]: > 100 µM (inactive)
- GI50 [7]: > 100 µM (inactive)
- GI50 [17]: > 100 µM (inactive)
- GI50 [8]: > 100 µM (inactive)
- GI50 [18]: > 100 µM (inactive)
- GI50 [9]: > 100 µM (inactive)
- GI50 [10]: > 100 µM (inactive)
- GI50 [11]: > 100 µM (inactive)

SMILES: COc1cc2c(/C=C3/C(=O)Nc4ccccc43)c(Cl)n(Cc3ccc(Cl)cc3)c2cc1C
- GI50 [13]: 0.306 µM (active)
- GI50 [14]: 0.263 µM (active)
- GI50 [15]: 0.608 µM (active)
- GI50 [1]: 0.373 µM (active)
- GI50 [2]: 0.359 µM (active)
- GI50 [3]: 0.43 µM (active)
- GI50 [16]: 0.401 µM (active)
- GI50 [4]: 0.237 µM (active)
- GI50 [5]: 0.632 µM (active)
- GI50 [6]: 0.344 µM (active)
- GI50 [7]: 0.33 µM (active)
- GI50 [17]: 0.296 µM (active)
- GI50 [8]: 0.256 µM (active)
- GI50 [19]: 0.382 µM (active)
- GI50 [18]: 0.216 µM (active)
- GI50 [9]: 0.343 µM (active)
- GI50 [10]: 0.299 µM (active)
- GI50 [11]: 0.226 µM (active)

SMILES: CC(C)(C)OC(=O)NC(Cc1ccc(OC(C)(C)C)cc1)C(=O)N[C@H]1CCC[C@H]1C(=O)NC(Cc1ccccc1)C(=O)N1CCCC1C(N)=O (stereo not given in full)
- GI50 [12]: > 100 µM (inactive)
- GI50 [13]: > 100 µM (inactive)
- GI50 [14]: > 100 µM (inactive)
- GI50 [15]: > 100 µM (inactive)
- GI50 [2]: > 100 µM (inactive)
- GI50 [3]: > 100 µM (inactive)
- GI50 [16]: > 100 µM (inactive)
- GI50 [4]: > 100 µM (inactive)
- GI50 [5]: > 100 µM (inactive)
- GI50 [6]: > 100 µM (inactive)
- GI50 [7]: > 100 µM (inactive)
- GI50 [17]: > 100 µM (inactive)
- GI50 [8]: > 100 µM (inactive)
- GI50 [18]: > 100 µM (inactive)
- GI50 [9]: > 100 µM (inactive)
- GI50 [10]: > 100 µM (inactive)
- GI50 [11]: > 100 µM (inactive)

SMILES: Cc1ccccc1/N=N/c1ccc(/N=N/c2c(O)ccc3cc(S(=O)(=O)O)cc(S(=O)(=O)O)c23)c(C)c1
- GI50 [14]: > 100 µM (inactive)
- GI50 [15]: > 100 µM (inactive)
- GI50 [1]: > 100 µM (inactive)
- GI50 [2]: > 100 µM (inactive)
- GI50 [3]: > 100 µM (inactive)
- GI50 [16]: > 100 µM (inactive)
- GI50 [4]: > 100 µM (inactive)
- GI50 [5]: > 100 µM (inactive)
- GI50 [7]: > 100 µM (inactive)
- GI50 [17]: > 100 µM (inactive)
- GI50 [8]: > 100 µM (inactive)
- GI50 [19]: > 100 µM (inactive)
- GI50 [18]: > 100 µM (inactive)
- GI50 [9]: > 100 µM (inactive)
- GI50 [10]: > 100 µM (inactive)

SMILES: O=C(Nc1cccc(C(F)(F)F)c1)c1cc(Br)cc(Br)c1O [FLUOROSALAN]
- GI50 [12]: 3.69 µM (inactive)
- GI50 [13]: 2.9 µM (inactive)
- GI50 [14]: 2.3 µM (inactive)
- GI50 [15]: 2.32 µM (inactive)
- GI50 [1]: 2.34 µM (inactive)
- GI50 [2]: 3.02 µM (inactive)
- GI50 [3]: 2.77 µM (inactive)
- GI50 [16]: 3.4 µM (inactive)
- GI50 [4]: 5.22 µM (inactive)
- GI50 [5]: 3.68 µM (inactive)
- GI50 [6]: 2.06 µM (inactive)
- GI50 [7]: 3.28 µM (inactive)
- GI50 [17]: 4.94 µM (inactive)
- GI50 [8]: 3.18 µM (inactive)
- GI50 [18]: 4.34 µM (inactive)
- GI50 [9]: 3 µM (inactive)
- GI50 [10]: 3.09 µM (inactive)
- GI50 [11]: 3.59 µM (inactive)

SMILES: CN(C)/N=C1\C=C2CC[C@H](O[Si](C)(C)C(C)(C)C)[C@@]2(C)CC1
- GI50 [12]: 19.9 µM (inactive)
- GI50 [13]: 15.8 µM (inactive)
- GI50 [14]: 14.3 µM (inactive)
- GI50 [15]: 14.1 µM (inactive)
- GI50 [1]: 7.93 µM (inactive)
- GI50 [2]: 17.3 µM (inactive)
- GI50 [3]: 17.7 µM (inactive)
- GI50 [16]: 18.1 µM (inactive)
- GI50 [4]: 17.9 µM (inactive)
- GI50 [5]: 14.9 µM (inactive)
- GI50 [6]: 18.3 µM (inactive)
- GI50 [7]: 16.4 µM (inactive)
- GI50 [17]: 18.2 µM (inactive)
- GI50 [8]: 16.9 µM (inactive)
- GI50 [18]: 16.6 µM (inactive)
- GI50 [9]: 10.4 µM (inactive)
- GI50 [10]: 16.9 µM (inactive)

SMILES: Cc1ccc(S(=O)(=O)NNC(=S)Nc2cccc3ccccc23)cc1
- GI50 [12]: 55.3 µM (inactive)
- GI50 [13]: 69 µM (inactive)
- GI50 [14]: 55.7 µM (inactive)
- GI50 [15]: 37.2 µM (inactive)
- GI50 [1]: 28.3 µM (inactive)
- GI50 [2]: > 100 µM (inactive)
- GI50 [3]: 68.1 µM (inactive)
- GI50 [16]: 97.5 µM (inactive)
- GI50 [4]: 59.3 µM (inactive)
- GI50 [5]: 22.3 µM (inactive)
- GI50 [7]: 23.4 µM (inactive)
- GI50 [17]: 43.2 µM (inactive)
- GI50 [8]: 36.8 µM (inactive)
- GI50 [18]: 54.8 µM (inactive)
- GI50 [9]: 16.7 µM (inactive)
- GI50 [10]: 37.5 µM (inactive)
- GI50 [11]: 33.7 µM (inactive)

SMILES: CC(C)(C)OC(=O)NC(C)(C)C(=O)NCCC(=O)O
- GI50 [14]: > 100 µM (inactive)
- GI50 [15]: > 100 µM (inactive)
- GI50 [2]: > 100 µM (inactive)
- GI50 [3]: > 100 µM (inactive)
- GI50 [16]: > 100 µM (inactive)
- GI50 [4]: > 100 µM (inactive)
- GI50 [5]: > 100 µM (inactive)
- GI50 [6]: > 100 µM (inactive)
- GI50 [7]: > 100 µM (inactive)
- GI50 [17]: > 100 µM (inactive)
- GI50 [8]: > 100 µM (inactive)
- GI50 [19]: > 100 µM (inactive)
- GI50 [18]: > 100 µM (inactive)
- GI50 [9]: > 100 µM (inactive)
- GI50 [10]: > 100 µM (inactive)
- GI50 [11]: > 100 µM (inactive)

SMILES: COC(=O)C(=O)C(CC(=O)Nc1c(C)cccc1C)C(=O)OC (stereo not given)
- GI50 [14]: > 100 µM (inactive)
- GI50 [1]: > 100 µM (inactive)
- GI50 [2]: > 100 µM (inactive)
- GI50 [3]: > 100 µM (inactive)
- GI50 [4]: > 100 µM (inactive)
- GI50 [5]: > 100 µM (inactive)
- GI50 [6]: > 100 µM (inactive)
- GI50 [7]: > 100 µM (inactive)
- GI50 [17]: > 100 µM (inactive)
- GI50 [9]: > 100 µM (inactive)
- GI50 [10]: > 100 µM (inactive)
- GI50 [11]: > 100 µM (inactive)

SMILES: CN(C)CCn1c2c3ccccc3ccc2c2oc(=O)c3ccccc3c21
- GI50 [14]: 6.37 µM (inactive)
- GI50 [1]: > 100 µM (inactive)
- GI50 [2]: 2.79 µM (inactive)
- GI50 [3]: 10.3 µM (inactive)
- GI50 [4]: 13.2 µM (inactive)
- GI50 [5]: 6.44 µM (inactive)
- GI50 [6]: 4.23 µM (inactive)
- GI50 [7]: 6.71 µM (inactive)
- GI50 [17]: 6.12 µM (inactive)
- GI50 [8]: 4.17 µM (inactive)
- GI50 [9]: 9.46 µM (inactive)
- GI50 [10]: 5.53 µM (inactive)

SMILES: O=C1c2ccccc2-c2nnc3c(c21)-c1ccccc1C3
- GI50 [12]: > 100 µM (inactive)
- GI50 [13]: > 100 µM (inactive)
- GI50 [14]: 65.6 µM (inactive)
- GI50 [15]: > 100 µM (inactive)
- GI50 [1]: 60.5 µM (inactive)
- GI50 [2]: 29.2 µM (inactive)
- GI50 [3]: 39 µM (inactive)
- GI50 [16]: > 100 µM (inactive)
- GI50 [7]: > 100 µM (inactive)
- GI50 [17]: > 100 µM (inactive)
- GI50 [8]: 46.6 µM (inactive)
- GI50 [18]: > 100 µM (inactive)
- GI50 [9]: 48.6 µM (inactive)
- GI50 [10]: 44.2 µM (inactive)
- GI50 [11]: > 100 µM (inactive)
